Molecules are shown by their SMILES.

The target of one assay is 5-HT2A receptor (Homo sapiens (Human), UniProt P28223). In words: Receptor Selection and Amplification (R-SAT) functional antagonist assay.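 Also: Read-out is β-galactosidase marker gene activity with ONPG substrate, measured after five days of growth in 96-well plates holding the test compound.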
Chain of 5-HT2A receptor (P28223 whole entry): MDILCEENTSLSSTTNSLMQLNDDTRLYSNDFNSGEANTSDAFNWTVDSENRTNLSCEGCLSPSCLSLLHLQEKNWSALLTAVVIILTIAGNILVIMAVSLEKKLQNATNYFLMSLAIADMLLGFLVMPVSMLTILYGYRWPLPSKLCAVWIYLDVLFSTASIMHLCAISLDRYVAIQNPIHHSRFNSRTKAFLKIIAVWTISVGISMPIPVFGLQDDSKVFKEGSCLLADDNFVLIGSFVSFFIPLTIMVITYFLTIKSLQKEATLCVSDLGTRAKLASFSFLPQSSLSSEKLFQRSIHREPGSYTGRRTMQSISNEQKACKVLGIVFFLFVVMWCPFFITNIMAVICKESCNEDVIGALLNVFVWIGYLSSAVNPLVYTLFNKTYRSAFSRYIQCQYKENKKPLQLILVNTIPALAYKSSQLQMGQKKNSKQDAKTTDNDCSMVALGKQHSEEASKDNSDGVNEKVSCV
Conditions: not given
On to `COc1cc(F)c(CN(C(=O)Cc2ccc(OCC(C)C)cc2)C2CCN(C)CC2)c(F)c1.O=C(O)C(F)(F)F` [Compound 33, N-[(2,6-difluoro-4-methoxyphenyl)methyl]-N-(1-methylpiperidin-4-yl)-2-[4-(2-methylpropoxy)phenyl]acetamide; trifluoroacetic acid], for which the “5-HT2a pKi” value worked out at 7.5.

Consider `CC(C)Oc1ccc(CC(=O)N(Cc2ccc(F)c(F)c2F)C2CCN(C)CC2)cc1.O=C(O)C(F)(F)F` [Compound 34, N-(1-methylpiperidin-4-yl)-2-[4-(propan-2-yloxy)phenyl]-N-[(2,3,4-trifluorophenyl)methyl]acetamide; trifluoroacetic acid], for which the “5-HT2a pKi” value stood at 7.4.

Take `CC(=O)O.COc1cc(F)c(CN(C(=O)OCc2ccc(OCC(C)C)cc2)C2CCN(C)CC2)c(F)c1` [Compound 36, [4-(2-methylpropoxy)phenyl]methyl N-[(2,6-difluoro-4-methoxyphenyl)methyl]-N-(1-methylpiperidin-4-yl)carbamate; acetic acid]: the “5-HT2a pKi” value amounted to 9.0.

Broadly, the Ki is the dissociation constant of the complex between target and ligand, obtained from inhibition or displacement. Higher therefore signals lower affinity. Compound `COc1ccc(CN(C(=O)OCc2ccc(OC(C)C)cc2)C2CCN(C)CC2)c(F)c1` [Compound 41, [4-(propan-2-yloxy)phenyl]methyl N-[(2-fluoro-4-methoxyphenyl)-methyl]-N-(1-methylpiperidin-4-yl)carbamate] had a Ki of 0.00251 µM.

`CC(C)COc1ccc(CC(=O)N(Cc2ccc(Cl)cc2C(F)(F)F)C2CCN(C)CC2)cc1` [Compound 50, N-{[4-chloro-2-(trifluoromethyl)phenyl]methyl}-N-(1-methylpiperidin-4-yl)-2-[4-(2-methylpropoxy)phenyl]acetamide; trifluoroacetic acid] had a Ki of 200 µM. Against the preceding compound, the Ki is about 80000-fold higher.

On to `Cc1cc(F)ccc1CN(C(=O)OCc1ccc(OC(C)C)cc1)C1CCN(C)CC1.O=C(O)C(F)(F)F` [Compound 56, [4-(propan-2-yloxy)phenyl]methyl N-[(4-fluoro-2-methylphenyl)-methyl]-N-(1-methylpiperidin-4-yl)carbamate; trifluoroacetic acid], for which the “5-HT2a pKi” value is listed as 7.8.

With `COc1ccc(CN(C(=O)OCc2ccc(OC(C)C)cc2)C2CCN(C)CC2)c(Cl)c1.O=C(O)C(F)(F)F` [Compound 57, [4-(propan-2-yloxy)phenyl]methyl N-[(2-chloro-4-methoxy-phenyl)methyl]-N-(1-methylpiperidin-4-yl)carbamate; trifluoroacetic acid], the “5-HT2a pKi” value is given as 7.8.

Still in this assay, the particulars now being: R-SAT, transfected NIH3T3 cells; guidance: high affinity pKi≥8.4, moderate affinity pKi≥7.7.
In the case of `CC(C)COc1ccc(COC(=O)N(Cc2ccc(F)c(F)c2F)C2CCN(C)CC2)cc1` [Compound 37, [4-(2-methylpropoxy)phenyl]methyl N-(1-methylpiperidin-4-yl)-N-[(2,3,4-trifluorophenyl)methyl]carbamate], the “5-HT2a pKi” value was 8.9.

Take `CC(C)Oc1ccc(COC(=O)N(Cc2ccc(Cl)cc2F)C2CCN(C)CC2)cc1` [Compound 38, [4-(propan-2-yloxy)phenyl]methyl N-[(4-chloro-2-fluorophenyl)-methyl]-N-(1-methylpiperidin-4-yl)carbamate]: the “5-HT2a pKi” value worked out at 9.3.

In the case of `CN1CCC(N(Cc2ccc(F)cc2F)C(=O)OCc2ccc(OCCF)cc2)CC1` [Compound 39, [4-(2-fluoroethoxy)phenyl]methyl N-[(2,4-difluorophenyl)methyl]-N-(1-methylpiperidin-4-yl)carbamate], the “5-HT2a pKi” value amounted to 9.8.

For `CCCCOc1ccc(COC(=O)N(Cc2ccc(F)cc2F)C2CCN(C)CC2)cc1` [Compound 40, (4-butoxyphenyl)methyl N-[(2,4-difluorophenyl)methyl]-N-(1-methylpiperidin-4-yl)carbamate], the “5-HT2a pKi” value is listed as 8.9.

Take `COC(=O)C(C)(C)CN1CCC(N(Cc2ccc(F)cc2F)C(=O)OCc2ccc(OC(C)C)cc2)CC1` [Compound 42, methyl 3-(4-{[(2,4-difluorophenyl)methyl]({[4-(propan-2-yloxy)phenyl]methoxy}carbonyl)amino}piperidin-1-yl)-2,2-dimethylpropanoate]: the “5-HT2a pKi” value was 8.0.

As to `CC(C)Oc1ccc(COC(=O)N(Cc2ccc(F)cc2F)C2CCN(CC(C)(C)C(=O)O)CC2)cc1` [Compound 43, 3-(4-{[(2,4-difluorophenyl)methyl]({[4-(propan-2-yloxy)phenyl]-methoxy}carbonyl)amino}piperidin-1-yl)-2,2-dimethylpropanoic acid], the “5-HT2a pKi” value is listed as 8.5.

For the compound `CCN1CCC(N(Cc2ccc(F)cc2F)C(=O)OCc2ccc(OC(C)C)cc2)CC1` [Compound 44, [4-(propan-2-yloxy)phenyl]methyl N-[(2,4-difluorophenyl)methyl]-N-(1-ethylpiperidin-4-yl)carbamate], the “5-HT2a pKi” value is listed as 9.4.

Turning to `CC(C)Oc1ccc(COC(=O)N(Cc2ccc(F)cc2F)C2CCN(C3CC3)CC2)cc1` [Compound 45, [4-(propan-2-yloxy)phenyl]methyl N-(1-cyclopropylpiperidin-4-yl)-N-[(2,4-difluorophenyl)methyl]carbamate], the “5-HT2a pKi” value was found to be 8.6.

For the compound `CC(C)Oc1ccc(COC(=O)N(Cc2ccc(F)cc2F)C2CCN(C3COC3)CC2)cc1` [Compound 46, [4-(propan-2-yloxy)phenyl]methyl N-[(2,4-difluorophenyl)methyl]-N-[1-(oxetan-3-yl)piperidin-4-yl]carbamate], the “5-HT2a pKi” value was found to be 7.6.

With `COc1ccc(CN(C(=O)Cc2ccc(OCC(C)C)cc2)C2CCN(C)CC2)c(F)c1` [Compound 47, N-[(2-fluoro-4-methoxyphenyl)methyl]-N-(1-methylpiperidin-4-yl)-2-[4-(2-methylpropoxy)phenyl]acetamide], the “5-HT2a pKi” value turned out to be 8.1.

Turning to `CC(C)Oc1ccc(/C=C/C(=O)N(Cc2ccc(F)cc2F)C2CCN(C)CC2)cc1` [Compound 48, (2E)-N-[(2,4-difluorophenyl)methyl]-N-(1-methylpiperidin-4-yl)-3-[4-(propan-2-yloxy)phenyl]prop-2-enamide], the “5-HT2a pKi” value turned out to be 7.4.

`CC(C)COc1ccc(CC(=O)N(Cc2ccc(F)cc2OC(F)(F)F)C2CCN(C)CC2)cc1.O=C(O)C(F)(F)F` [Compound 51, N-{[4-fluoro-2-(trifluoromethoxy)phenyl]methyl}-N-(1-methyl-piperidin-4-yl)-2-[4-(2-methylpropoxy)phenyl]acetamide; trifluoroacetic acid]: the “5-HT2a pKi” value is on record as 6.7.

With `Cc1cc(F)ccc1CN(C(=O)Cc1ccc(OCC(C)C)cc1)C1CCN(C)CC1.O=C(O)C(F)(F)F` [Compound 52, N-[(4-fluoro-2-methylphenyl)methyl]-N-(1-methylpiperidin-4-yl)-2-[4-(2-methylpropoxy)phenyl]acetamide; trifluoroacetic acid], the “5-HT2a pKi” value was 6.7.

In the case of `COc1ccc(CN(C(=O)Cc2ccc(OCC(C)C)cc2)C2CCN(C)CC2)c(Cl)c1.O=C(O)C(F)(F)F` [Compound 53, N-[(2-chloro-4-methoxyphenyl)methyl]-N-(1-methylpiperidin-4-yl)-2-[4-(2-methylpropoxy)phenyl]acetamide; trifluoroacetic acid], the “5-HT2a pKi” value was 6.9.

In the case of `CC(C)COc1ccc(COC(=O)N(Cc2ccc(F)cc2Cl)C2CCN(C)CC2)cc1` [Compound 58, [4-(2-methylpropoxy)phenyl]methyl N-[(2-chloro-4-fluorophenyl)methyl]-N-(1-methylpiperidin-4-yl)carbamate], the “5-HT2a pKi” value was 8.1.

For `CC(C)COc1ccc(CC(=O)N(Cc2ccc(Cl)cc2Cl)C2CCN(C)CC2)cc1.O=C(O)C(F)(F)F` [Compound 59, N-[(2,4-dichlorophenyl)methyl]-N-(1-methylpiperidin-4-yl)-2-[4-(2-methylpropoxy)phenyl]acetamide; trifluoroacetic acid], the “5-HT2a pKi” value is 6.6.

For the compound `CC(C)Oc1ccc(CC(=O)N(Cc2ccc(Cl)cc2Cl)C2CCN(C)CC2)cc1.O=C(O)C(F)(F)F` [Compound 60, N-[(2,4-dichlorophenyl)methyl]-N-(1-methylpiperidin-4-yl)-2-[4-(propan-2-yloxy)phenyl]acetamide; trifluoroacetic acid], the “5-HT2a pKi” value was 6.5.

As for `CC(C)COc1ccc(CC(=O)N(Cc2ccc(F)cc2Cl)C2CCN(C)CC2)cc1.O=C(O)C(F)(F)F` [Compound 61, N-[(2-chloro-4-fluorophenyl)methyl]-N-(1-methylpiperidin-4-yl)-2-[4-(2-methylpropoxy)phenyl]acetamide; trifluoroacetic acid], the “5-HT2a pKi” value is given as 6.7.

As to `CC(C)Oc1ccc(CC(=O)N(Cc2ccc(F)cc2Cl)C2CCN(C)CC2)cc1.O=C(O)C(F)(F)F` [Compound 62, N-[(2-chloro-4-fluorophenyl)methyl]-N-(1-methylpiperidin-4-yl)-2-[4-(propan-2-yloxy)phenyl]acetamide; trifluoroacetic acid], the “5-HT2a pKi” value worked out at 6.5.

As for `CC(C)Oc1ccc(COC(=O)N(Cc2ccc(F)cc2Cl)C2CCN(C)CC2)cc1` [Compound 63, [4-(propan-2-yloxy)phenyl]methyl N-[(2-chloro-4-fluorophenyl)-methyl]-N-(1-methylpiperidin-4-yl)carbamate], the “5-HT2a pKi” value is 8.4.

As for `CC(C)COc1ccc(COC(=O)N(Cc2ccc(Cl)cc2Cl)C2CCN(C)CC2)cc1` [Compound 64, [4-(2-methylpropoxy)phenyl]methyl N-[(2,4=dichlorophenyl)methyl]-N-(1-methylpiperidin-4-yl)carbamate], the “5-HT2a pKi” value stood at 8.0.

Consider `Cc1ccc(F)c(CN(C(=O)OCc2ccc(OC(C)C)cc2)C2CCN(C)CC2)c1F` [Compound 65, [4-(propan-2-yloxy)phenyl]methyl N-[(2,6-difluoro-3-methylphenyl)methyl]-N-(1-methylpiperidin-4-yl)carbamate], for which the “5-HT2a pKi” value amounted to 7.7.

For the compound `CC(C)Oc1ccc(COC(=O)N(Cc2c(F)ccc(F)c2F)C2CCN(C)CC2)cc1` [Compound 66, [4-(propan-2-yloxy)phenyl]methyl N-(1-methylpiperidin-4-yl)-N-[(2,3,6-trifluorophenyl)methyl]carbamate], the “5-HT2a pKi” value amounted to 8.4.

Turning to `Cc1c(F)ccc(CN(C(=O)OCc2ccc(OC(C)C)cc2)C2CCN(C)CC2)c1F` [Compound 67, [4-(propan-2-yloxy)phenyl]methyl N-[(2,4-difluoro-3-methylphenyl)methyl]-N-(1-methylpiperidin-4-yl)carbamate], the “5-HT2a pKi” value worked out at 10.0.

For the origin of these results see patent publication US11440884B2, “Compounds, salts thereof and methods for treatment of diseases” (ACADIA PHARMACEUTICALS INC., priority 2017, dated 2022).
